Assay [1] can be described thus: ABTS^● decolorization assay. The conditions noted are these: 30 min incubation at room temperature, absorbance at 734 nm. As for the experimental part:
A modification of the ABTS^● decolorization assay was employed. Briefly, various volumes of solutions of the studied compounds were introduced to wells of a 96-well microplate, each prefilled 200 μL of ABTS^● solution. […] The drop in absorbance after 30 min incubation at room temperature was read as a measure of the antioxidant activity.
(§1) All assays were standardized with respect to Trolox. The antioxidant activity was calculated in each case as a ratio of the slope of the dependence of absorbance change on the concentration of a studied compound to the slope of the dependence of absorbance change of standard samples concerning Trolox on the concentration of Trolox. Antioxidant activities were expressed in moles of Trolox equivalents (TE)/mol of a studied compound, as described previously.

In assay [2] the test system is MDA-MB-231 cells. Details: method as in PMID 29048370. The conditions noted are these: read-out: Concentration decreasing the viability of MDA-MB-231 cells (by 50%); cited from earlier work.
The subject of assay [3] is MRC-5 fibroblasts. Put plainly: Cytotoxicity (Neutral Red), MRC-5 fibroblasts. In kind it is cell-based, human. The conditions noted are these: 24 h exposure. As for the experimental part:
(§2) The PEO1 cells, SKOV-3 cells, and MRC-5 cells were grown at 37 °C and 5% CO2 in RPMI + GlutaMAX medium, McCoy’s 5A medium, and the DMEM + GlutaMAX medium, respectively. The media were supplemented with 10% heat-inactivated fetal calf serum and penicillin/streptomycin. The cell viability was evaluated using the Trypan Blue exclusion test.
(§3) In the cytotoxicity experiments, cells were grown in wells of sterile 96-well plates. The seeding density was 1 × 10^4 for SKOV-3 and MRC-5 cells and 1.5 × 10^4 for PEO1 cells. The cells were allowed to grow in the incubator for 24 h. Then, the medium was removed and new medium with an examined compound was added. The stock solutions of the compounds studied diluted with the appropriate cell medium were filtered before the addition to the cells using 0.22 µm filters. No more than 0.02% of DMSO was present in the media, and it had no discernible impact on the treated cells. Cells not exposed to any compound served as a control. After another 24 h incubation, the medium was gently aspirated, and the wells were added with 2% sterile Neutral Red solution (100 µL). The plates were then incubated (37 °C, 5% CO2) for one hour. The Neutral Red solution was aspirated, and the wells were washed two times with warm (37 °C) PBS. Subsequently, 100 µL of a permeabilization mixture (water/ethanol/glacial acetic acid, 50/49/1, v/v/v) was introduced to each well. The plates were shaken at 700 rpm for 20 min and absorbance was read at a wavelength of 540 nm against 620 nm.

The subject of assay [4] is SKOV-3 ovarian cancer cells. The assay is described as follows: Cytotoxicity (Neutral Red), SKOV-3 cells. In kind it is cell-based, human. The conditions noted are these: 24 h exposure. As for the experimental part: as §2, §3
For assay [5], the system named is PEO1 ovarian cancer cells. The assay is described as follows: Cytotoxicity (Neutral Red), PEO1 cells. In kind it is cell-based, human. The conditions noted are these: 24 h exposure. As for the experimental part: as §2, §3
Assay [6] relates to cervical cancer HeLa cells. Details: method as in PMID 21199742. The conditions noted are these: after 24 h exposure; read-out: Concentration decreasing the viability of HeLa cells by 50%; cited from earlier work.
The test system of assay [7] is HT-1080 fibrosarcoma cells. Details: method as in PMID 21116690. The conditions noted are these: read-out: Concentration decreasing the viability of HT-1080 cells (by 50%); cited from earlier work.
The nature of assay [8]: DPPH^● decolorization assay. The conditions noted are these: 30 min at ambient temperature in the dark, absorbance at 517 nm. As for the experimental part: The assay was performed as described in a previous article. Briefly, increasing volumes of solutions of the studied compounds were introduced to wells of a 96-well microplate, each with 200 μL of 0.3 mM DPPH^● solution in methanol. The reaction was allowed to proceed for 30 min at ambient temperature in the dark, and absorbance at 517 nm was read. The absorbance decrease was a measure of the antioxidant activity.
as §1
(Loss of DPPH colour is used to gauge radical scavenging.)

The nature of assay [9]: Ferric reducing antioxidant power (FRAP) assay. The conditions noted are these: 30 min at ambient temperature, pH 3.6, absorbance at 593 nm. As for the experimental part: The method proposed by Benzie and Strain [91] was employed with a slight modification. Briefly, increasing volumes of solutions of the studied compounds were added to wells of a 96-well microplate prefilled with 200 μL of the working solution composed of 0.3 M acetate buffer, pH 3.6 (10 volumes), 10 mM 2,4,6-tris(2-pyridyl)-s-triazine (TPTZ), in 40 mM HCl (1 volume) and 20 mM FeCl3 (1 volume), was prepared immediately before use. After 30 min incubation at ambient temperature and the absorbance of the Fe^2+-TPTZ complex was read at 593 nm.
as §1

Assay [10] has as its system osteosarcoma 143B cells. Details: method as in PMID 27158383. The conditions noted are these: after 48 h; read-out: Concentration decreasing viability of 143B cells to 50%; cited from earlier work.
The test system of assay [11] is MDA-MB-231 cells. Details: method as in PMID 27177074. The conditions noted are these: 100 μM; cited from earlier work.
Assay [12] has as its system osteosarcoma MG63 cells. On the set-up: method as in PMID 27158383. The conditions noted are these: after 48 h; read-out: Concentration decreasing viability of MG63 cells to 50%; cited from earlier work.
Assay [13] deals with LNCaP prostate cancer cells. Details: method as in PMID 26124008. The conditions noted are these: read-out: Concentration decreasing viability of LNCaP cells to 50%; cited from earlier work.
In assay [14] the test system is PC-3 prostate cancer cells. On the set-up: method as in PMID 26124008. The conditions noted are these: read-out: Concentration decreasing viability of PC-3 cells to 50%; cited from earlier work.

As for `O=C(O)/C=C/c1ccc(O)c(O)c1` [Caffeic acid, caffeic acid], the “Antioxidant activity, ABTS^● Decolorization” value in assay [1] was 0.771 ± 0.066 mol Trolox equivalents (TE)/mol compound. In addition, the IC50 in assay [2] is 151 µM; in [4] (Homo sapiens, SK-OV-3, Neutral Red, read-out: IC50 SKOV-3), 1320 µM; in [5] (Homo sapiens, PEO1, Neutral Red, read-out: IC50 PEO1), 245 µM; in assay [6], roughly 2000 µM; in assay [7], 30 µM. Further, the “Concentration at which viability of MRC-5 cells was lowered” value in [3] (p < 0.05) is on record as 1000 µM. The “Concentration range with no significant decrease in viability of SKOV-3 cells” value in assay [4] is reported as “up to 1000 µM”. Moreover, in assay [5] (p < 0.05), the “Concentration at which viability of PEO1 cells was lowered” value was 300 to 1000 µM. Besides, in [8], the “Antioxidant activity, DPPH^● Decolorization” value is recorded as 0.001 ± 0.006 mol Trolox equivalents (TE)/mol compound. In addition, the “Antioxidant activity, FRAP” value in assay [9] is 0.019 ± 0.002 mol Trolox equivalents (TE)/mol compound.
`COc1cc(/C=C/C(=O)O)ccc1O` [Ferulic acid, ferulic acid]: the “Antioxidant activity, ABTS^● Decolorization” value in assay [1] is given as 1.409 ± 0.096 mol Trolox equivalents (TE)/mol compound. Further, in assay [3], the “Concentration range with no significant decrease in viability of MRC-5 cells” value lay in the range of 0 to 1000 µM. The IC50 in assay [10] was 60 µM; in assay [12] it was 66 µM; in assay [13] it was 500 µM; in assay [14], 300 µM. In addition, in assay [4], the “Concentration range with no significant decrease in viability of SKOV-3 cells” value fell in the range of 0 to 1000 µM. Also, the “Concentration range with no significant decrease in viability of PEO1 cells” value in [5] was in the range of 0 to 1000 µM. The “Viability of MDA-MB-231 cells (decreased to)” value in [11] is “about 75%”. In addition, the “Antioxidant activity, DPPH^● Decolorization” value in assay [8] is 0.185 ± 0.070 mol Trolox equivalents (TE)/mol compound. Further, the “Antioxidant activity, FRAP” value in [9] is recorded as 0.554 ± 0.017 mol Trolox equivalents (TE)/mol compound.

These data come from PMC11313193, “Which Constituents Determine the Antioxidant Activity and Cytotoxicity of Garlic? Role of Organosulfur Compounds and Phenolics” (International Journal of Molecular Sciences, 2024).
